2 molecules from US20140050779A1, “[…]-2 INHIBITORS AND USES THEREOF” (SINGAPORE HEALTH SERVICES PTE. LTD., priority 2011, published 2014) can be followed below.

Entries after “also recorded” stand apart in the source; their conditions may differ.

One test concerns the target T1, hM2 (Homo sapiens, UniProt P08172).
T1 sequence (P08172 1-466): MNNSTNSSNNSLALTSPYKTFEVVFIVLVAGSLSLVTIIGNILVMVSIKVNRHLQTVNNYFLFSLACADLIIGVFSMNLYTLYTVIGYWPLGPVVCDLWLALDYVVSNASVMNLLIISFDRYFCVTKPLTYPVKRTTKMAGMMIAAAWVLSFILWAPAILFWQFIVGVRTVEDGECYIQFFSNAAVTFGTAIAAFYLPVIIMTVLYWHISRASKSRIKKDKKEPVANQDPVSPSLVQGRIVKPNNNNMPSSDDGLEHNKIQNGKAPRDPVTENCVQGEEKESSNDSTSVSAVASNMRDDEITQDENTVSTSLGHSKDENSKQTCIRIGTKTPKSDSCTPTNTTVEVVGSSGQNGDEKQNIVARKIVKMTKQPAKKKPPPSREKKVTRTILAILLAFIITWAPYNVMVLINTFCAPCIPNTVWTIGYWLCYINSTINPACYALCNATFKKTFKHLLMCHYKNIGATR
Description: biochemical. The source says: In some embodiments, the TG-2 inhibitors described herein can target the respective TG-2 protein and/or the expression of TGM-2. In other embodiments, the TG-2 inhibitors can further target at least one muscarinic receptor, for example M2 or M3 or inhibit the expression of at least one muscarinic receptor for example, M2 or M3.

Test [1] deals with TG-5. The test is described as follows: Western blot of TG proteins in mouse scleral fibroblasts after muscarinic agents. The test is classed as cell-based. The note with it: 0.01-10 μM for 5 days. A general note: A western blot detects proteins with antibodies after separation by electrophoresis.
For test [2], the system named is TG-5. Description: Western blot of TG proteins in human scleral fibroblasts after muscarinic agents. The test is classed as cell-based. The note with it: 0.01-10 μM for 5 days.
The next test relates to TG-3. The description is as above. The test is classed as cell-based. The note with it: 0.01-10 μM for 5 days.
For test [3], the system named is TGase 2 (TGM-2) transcript. Description: qPCR of TGases mRNA in mouse scleral fibroblasts after muscarinic agents. The note with it: 0.01-10 μM for 5 days, qPCR normalized to GAPDH. The class given is cell-based. As to the method: (§1) P2 cultured mouse scleral fibroblasts were treated with atropine or carbachol at different concentrations of 0.01 μM, 0.1 μM, […], 5 μM and 10 μM for 5 days. Following 5 days of treatment, the total RNA was extracted from these cells and TGases transcript level was quantified via qPCR analysis. Height of bars show the means of three independent samples and error bars represent standard deviation. Values are normalized against GAPDH house keeping genes.
Murine scleral derived fibroblasts were cultured to passage 2 and treated to exogenous atropine or carbachol at 0.01 μM, 0.1 μM, 1 μM, 5 μM and 10 μM for 5 days. Following 5 days of treatment, the total RNA was extracted from these cells and RT-qPCR performed to determine transcript levels of TGM-2. The levels were normalized to GAPDH internal control. […] Height of bars or symbols represents mean and error bars SD. *: p<0.05 and **: p<0.001.
All cells used in examples described herein were between passages 2-4. Passaged cells were plated at a concentration of 2×10^5/mL into 6 well plates containing DMEM with 10% FBS. The cells were seen to attach to the bottom of the culture wells after 4 hours. […] The supernatant was poured into a new eppendorf tube and cell concentrations were determined using the Dc Protein assay Kit (Bio-Rad, MA). […] Cell lysate was collected for relative quantitative (q) PCR and protein analysis at day 5. […]
In general terms: In qPCR the cycle at which signal appears reflects the starting amount.

For the next test, the system named is TG-2. Description: TG-2 colorimetric microassay (transamidase activity) in lysate of treated mouse scleral fibroblasts. The note with it: murine scleral derived fibroblasts, 0.01-10 μM for 5 days. The test is classed as cell-based.
In another test the test system is TGase 5 transcript. Description: qPCR of TGases mRNA in mouse scleral fibroblasts after muscarinic agents. The test is classed as cell-based. The note with it: 0.01-10 μM for 5 days, qPCR normalized to GAPDH. The procedure:
as §1
(§2) All cells used in examples described herein were between passages 2-4. Passaged cells were plated at a concentration of 2×10^5/mL into 6 well plates containing DMEM with 10% FBS. The cells were seen to attach to the bottom of the culture wells after 4 hours. Old media was removed from wells and 1 mL of drug was added with fresh full medium and incubated at 37° C. Fresh drugs were replaced daily consecutively for the next 5 days to avoid oxidation. The drugs/media was removed and wells were washed twice with 1×PBS. 200 μl of RIPA lysis buffer was added per well and incubated for 5 minutes and cells were scrapped into an eppendorf tube. The cells were stored at −20° C. until sonication. The cells were sonicated on ice thrice at 20% output power for 5 seconds each time and rested 1 minute in between each turn. Cell debris was spun down at 12000 rpm for 20 minutes. The supernatant was poured into a new eppendorf tube and cell concentrations were determined using the Dc Protein assay Kit (Bio-Rad, MA). Passaged cells were plated at a concentration of 1×10^5 into 6 well plates containing DMEM with 10% FBS. The cells were seen to attach to the bottom of the culture wells after 4 hours. Freshly prepared muscarinic agents' at base line, 0.1, 1, 10 and 100 μM concentrations were added for 5 days (Table 2). The culture medium was removed and fresh medium containing the same muscarinic drug added every day to avoid drug changes such as atropine oxidation. Cell lysate was collected for relative quantitative (q) PCR and protein analysis at day 5.
(§3) Total RNA was isolated from cultured human and mouse scleral fibroblasts using TRIzol reagent (Invitrogen life technologies, USA) in accordance with the manufacturer's instructions Chomczynski P, Sacchi N., “Single-step method of RNA isolation by acid guanidinium thiocyanate-phenol-chloroform extraction”, Anal. Biochem. 1987 April; 162(1):156-9. Genomic DNA was removed by digestion with DNase I (Amp Grade; Invitrogen-Gibco) for 15 minutes at room temperature. One microgram of total RNA was reverse-transcribed with random hexamers by using a first-strand cDNA synthesis kit (Invitrogen-Gibco). qPCR was performed in a 384-well plate format on an Roche 480 LightCycler Detection System (Roche Applied Science, Mannheim, Germany) with efficiency corrected software 4.0. PCR was performed using 50 ng of cDNA of each sample. The pre-validated hydrolysis probes for TG-2 were from human and mouse universal probe library (Roche, CA) and the primers for human and mouse are shown in Table 3. GAPDH Internal Standard (Roche) was used as an endogenous control. To standardize and evaluate scleral gene expression, aliquots of the same cDNA (50 ng) preparation were used as templates in all PCR reactions. The data was analyzed by comparative CT (MCT) method as previously described in Brink N, Szamel M, Young A R, Wittern K P, Bergemann J., “Comparative quantification of IL-1, IL-10, Il-10r, TNF and IL-7 mRNA levels in UV-irradiated human skin in vivo”, Inflamm Res. 2000 June; 49(6):290-6.

The subject of another test is TGase-3 transcript. The test is described as above. The class given is cell-based. The note with it: 0.01-10 μM for 5 days, qPCR normalized to GAPDH. The procedure: as §1, §2, §3
The subject of the next test is TGase 1 transcript. Described as above. The class given is cell-based. The note with it: 0.01-10 μM for 5 days, qPCR normalized to GAPDH. The procedure: as §1, §2, §3

For the molecule `C[C@@H]1OC(=O)[C@H]2C[C@H]3CCCC[C@@H]3[C@@H](/C=C/[C@H]3CCC[C@H](C)N3C)[C@@H]12` [himbacine], on hM2, the equilibrium dissociation constant (Kd) was 4 nM.
With `CN1[C@@H]2CC[C@H]1C[C@@H](OC(=O)C(CO)c1ccccc1)C2` (stereo partly drawn) [atropine], the TG-5 protein level entry in the test on TG-5 [1] and in the test with TG-5 [2] was “reduced” each time. In addition, the TG-3 protein level result in the test on TG-3 is listed as “increased”. Further, in test [3], the “TGase 2 (TGM-2) transcript level” value is reported as “reduction; also recorded: down regulated”. Also, the “transamidase (cross-linking) activity of TG-2” value in the test on TG-2 is reported as “reduction”. For the same molecule, in the test on TGase 5 transcript, the “TGase 5 transcript level” value is “down regulated”. Besides, the TGase-3 transcript level result in the test on TGase-3 transcript was “upregulated”. Moreover, the “TGase 1 transcript level” value in the test on TGase 1 transcript is reported as “down regulated”.

One may read the Kd as the constant that tells how readily two partners part at equilibrium. A low value points to a tighter complex.
